Here are results for five molecules from patent US3994908A, “Substituted acetic acid derivatives and production thereof” (Shionogi & Co., Ltd., priority 1972, dated 1976).

Structures are written as SMILES.

One data set is described as follows: in vivo. The settings on record: mouse, po. How it is done: Arch. int. […] The toxicity was tested by the ora
administration of the tested compound to mice.

The subject of the next data set is erythema. As to the kind of experiment: Anti-erythema activity by the Wilhelmi method, oral. The conditions noted are these: Cavia porcellus, Guinea pig. It counts as in vivo. An excerpt:
The anti-erythema activity was observed by the Wilhelmi method
[Wilhelmi,g.,(1949), Schweiz.Med.Wehnschr.,79, 577]. The anti-edema

In the case of `CC(C(=O)O)c1ccc(Oc2ccc(Cl)cc2)nc1` (stereo not drawn) [2-(2-p-Chlorophenoxy-5-pyridyl)-propionic acid], the LD50 – broadly, the dose at which mortality reaches 50% – in “in vivo” stood at 1150 mg/kg. Also, the 50% effect level in the data set with erythema (ED50) was put at a dose of 19 mg/kg.

Regarding `CC(=O)Oc1ccccc1C(=O)O` [Aspirin, reference compound], in “in vivo”, the LD50 was determined as 2000 mg/kg. Besides, the ED50 (in general, the dose that gives a 50% effect, or the effect in half of the subjects) in the data set on erythema turned out to be 79 mg/kg.

The molecule `CC(C(=O)O)c1ccnc(Oc2ccccc2)c1` (stereo not drawn) [Calcium bis[2-(2-phenoxy-4-pyridyl)-propionate]] gave an LD50 in “in vivo” of 2250 mg/kg. Further, in the data set on erythema, the ED50 turned out to be 47 mg/kg.

In turn, `CC(C(=O)O)c1ccc(Oc2ccccc2)nc1` (stereo not drawn) [Calcium bis[2-(2-phenoxy-5-pyridyl)-propionate]] registered an LD50 in “in vivo” of 1640 mg/kg. This molecule also gave an ED50 in the data set with erythema of 21 mg/kg.

Molecule `CCCCC1C(=O)N(c2ccccc2)N(c2ccccc2)C1=O` [Phenylbutazone, reference compound] returned an ED50 in the data set with erythema of 26 mg/kg.
